The subject of experiment [1] is Amaranthus tamariscinus (AMATA, common waterhemp), PPO resistant biotype 1 (w.2). The experiment in a line: Greenhouse herbicidal activity test, PPO resistant common waterhemp biotype 1 (w.2). The class given is in vivo. The following applies: for activity on / control of resistant weeds (w.2), in words: azafenidin: in comparison to sensitive biotypes; for Weed control (%) w.2: PPO resistant biotype 1, scale 0 to 100.

Experiment [2] deals with Amaranthus tamariscinus (AMATA, common waterhemp), sensitive biotype (w.1). Description: Greenhouse herbicidal activity test, sensitive common waterhemp (w.1). In kind it is in vivo. Conditions: for Weed control (%) w.1: sensitive biotype, scale 0 (no damage) to 100 (complete destruction).

Structures are written as SMILES.

For the compound `CCc1ccc(COc2ccc(-n3c(=O)cc(C(F)(F)F)n(C)c3=O)cc2)c(OC(C)C(=O)OC)c1` (centres unmarked) [(I).1, benzfendizone], the “activity on / control of resistant weeds (w.2), in words” value in experiment [1] is given as “very good activity”. For the same compound, the “Weed control (%) w.2” value was found to be 89% in experiment [1] (use rate 2 g/ha) and 92% in experiment [1] (use rate 4 g/ha). Further, in experiment [2], the “activity on sensitive weeds (w.1), in words” value was “very good activity”. Also, the results for the “Weed control (%) w.1” value in experiment [2] (use rate 2 g/ha) and in experiment [2] (use rate 4 g/ha) were 94% and 100%, respectively.

`C#CCOc1cc(-n2nc3n(c2=O)CCCC3)c(Cl)cc1Cl` [azafenidin, reference compound]: the “activity on / control of resistant weeds (w.2), in words” value in experiment [1] is given as “much weaker control”. The “Weed control (%) w.2” value in experiment [1] (use rate 2 g/ha) worked out at 67%; in experiment [1] (use rate 4 g/ha) it was 73%. The “Weed control (%) w.1” value is reported as 95% in experiment [2] (use rate 2 g/ha) and 98% in experiment [2] (use rate 4 g/ha).

These data come from US20210352900A1, “Method for Controlling PPO Resistant Weeds” (BASF SE, priority 2016, published 2021).
